PMC11939470, “The Cyclic Antimicrobial Peptide C-LR18 Has Enhanced Antibacterial Activity, Improved Stability, and a Longer Half-Life Compared to the Original Peptide” (Antibiotics, 2025)
Where a SMILES comes first, the peptide text is derived from it. Bridges are numbered along the chain shown (N, C = ends).

Experiments:
E. coli ATCC25922 = assay: Stability in protease, read out by MIC assay; assay type: in vitro ADME; conditions: 1 mg/mL papain for 1 h
Procedure: The MIC test was performed using the method recommended by the National Committee for Clinical Laboratory Standards (NCCLS) Standards and Guidelines, and the method was modified according to the characteristics of antimicrobial peptides. The bacteria were cultured at 37 °C for 16 h, and the microbial suspension was diluted to a final concentration of 5 × 10^5 CFU/mL. Then, 50 µL of bacterial solution was mixed with 50 µL of MHB containing different concentrations peptides (0.5–256 µM) in a 96-well plate. […] The assays were performed three times. Geometric mean MIC represents the average MIC of the peptide against all the tested strains.
The stability of LR18 and C-LR18 in protease, serum, and gastrointestinal conditions was determined using MIC assay, as described previously.
To detect the stability of peptides in protease, the peptides were diluted in 1 mg/mL of trypsin, pepsin, papain, and protease K, respectively, and incubated at 37 °C for 1 h. Then, the protease in the peptide solutions was inactivated in a water bath at 60 °C for 30 min. Subsequent steps were the same as for the MIC assay. The assays were performed three times.

[1] = Half-life of peptides in plasma in vitro (HPLC); assay type: in vitro ADME, rat
Procedure: Half-life of peptides in vitro was determined using HPLC according to the method described in [30]. Blood from SPF SD rats was collected in a centrifuge tube containing 0.5% heparin sodium via cardiac sampling. Plasma was separated and stored at −80 °C until analyzed. The plasma samples with final concentrations of 25 μg/mL, 50 μg/mL, 100 μg/mL, 200 μg/mL, 400 μg/mL, and 750 μg/mL were prepared by mixing 1500 μg/mL of antimicrobial peptides with rat plasma, then adding acetonitrile containing 0.1% TFA at 1/1 volume. After vortexing for 30 s, the samples were centrifuged at 14,000 r/min for 20 min, the supernatant was aspirated, sterilized using a 0.22 μm sterilization filter, and 30 μL of the sample was used for HPLC determination. After HPLC detection, the value of the chromatographic peak area was counted, the mathematical relationship between the sample concentration and the chromatographic peak area was calculated, and the standard curve was drawn. The standard curve was regressio-calculated by linear fitting Y = aX + b and weighted least square method (w = 1/c2).
The 1 mg/mL peptide solution was mixed with SD rat plasma and incubated in a water bath at 37 °C. Samples were taken at different time points of 0, 20, 30, 40, 60, 80, 100, 120, 140, 160, 180, 200, 210, 240, 300, 400, 500, and 600 min. After vortexing for 30 s, the samples were centrifuged at 14,000 r/min for 20 min, the supernatant was aspirated and sterilized using a 0.22 μm sterilization filter, and 30 μL of the sample was used for HPLC determination. The experiment was repeated three times. The peak area measured by HPLC was substituted into the standard curve obtained by the above experiment, the peptide concentration at different time points was calculated, and the half-life of peptides in plasma was calculated.

E. coli Y1 = assay: Bacterial colony number in mouse abdominal cavity; assay type: in vivo; conditions: 24 h after treatment, three mice, control group 1 × 10^9 CFU/mL
Procedure: One hour after the mice were intraperitoneally injected with 0.5 mL of E. coli Y1 suspension (10^9 CFU/mL), different doses of C-LR18 (2.5 mg/kg, 5 mg/kg, and 7.5 mg/kg) were injected into the mice through the tail vein, respectively. After 24 h, 2 mL sterile saline was injected into the abdominal cavity of the mice, and the mice were killed via cervical dislocation. The peritoneal cavity of mice was opened, the peritoneal fluid was absorbed, and the peritoneal fluid was diluted with sterilized MH medium in a double ratio. After coating the plate, the peritoneal fluid was cultured at 37 °C for 16–20 h, and the colony count was performed. Three mice were taken from each group.

For `CC(C)C[C@@H]1NC(=O)[C@H](CCCNC(=N)N)NC(=O)[C@H](CCCNC(=N)N)NC(=O)[C@H](CC(C)C)NC(=O)[C@H](CC(C)C)NC(=O)[C@H](CCCNC(=N)N)NC(=O)[C@H](CC(C)C)NC(=O)[C@@H]2CCCN2C(=O)[C@H](CCCNC(=N)N)NC(=O)[C@H](CCCNC(=N)N)NC(=O)[C@@H]2CCCN2C(=O)[C@H](CC(C)C)NC(=O)[C@H](CCCNC(=N)N)NC(=O)[C@H](CC(C)C)NC(=O)[C@H](CC(C)C)NC(=O)[C@H](CCCNC(=N)N)NC(=O)[C@H](CCCNC(=N)N)NC(=O)[C@H](CC(C)C)NC(=O)[C@@H](N)CSSC[C@@H](C(=O)O)NC1=O` [C-LR18] (H-CLRRLLRLPRRPLRLLRRLC-OH; disulfide 1-20; N-terminus and C-terminus assumed), the “change of antibacterial activity after papain” value (E. coli ATCC25922) was “remained unchanged”, the half-life ([1]; 1 mg/mL peptide solution mixed with SD rat plasma (heparin), 37 °C water bath, 0–600 min, HPLC, repeated three times) was 209 ± 20.2 min and the “peptide degraded in plasma” value ([1]; after 210 min, rat plasma 37 °C, HPLC) was “More than half”. For the same compound, the “peptide detected in plasma samples” value ([1]; after 600 min, rat plasma 37 °C, HPLC) was “no C-LR18 could be detected”, the “half-life in rat plasma relative to LR18” value ([1]; in vitro rat plasma) was 3.37 times and the “prolongation of half-life in rat plasma versus LR18” value ([1]; in vitro rat plasma) was 147.33 min. For the same compound, the “number of colonies in mouse abdominal cavity” value (shortened to “number of colonies”) (E. coli Y1; 2.5 mg/kg) was 10^7 CFU/mL, the “number of colonies” value (E. coli Y1; 5.0 mg/kg) was 10^6 CFU/mL and the “number of colonies” value (E. coli Y1; 7.5 mg/kg) was 10^4 CFU/mL.
